# Reference: patent US20030083324A1, “Photosensitizing ointment” (CeramOptec Industries, Inc., priority 2000, published 2003)
# Conditions: especially when diluted with cream to <20% (w/w)
# Source text: The phototoxic compounds can be mixed with the carrier in a solubilized form.
structure (smiles),measurement,value
COCCO [2-methoxy ethanol],toxicity to human skin,no toxicity
